For series [1], the system named is Spirotrichonympha leidyi Koidzumi. Briefly: Protozoan counting, S. leidyi. The class given is in vivo. Conditions: 640.8 μg/mm^3, 14 day assay. The method, then:
(§1) The effect of 2-phospho-myo-inositol dicyclohexylamine salt on C. formosanus hindgut protozoan populations was examined as follows: Ten mg of 2-phospho-myo-inositol were dissolved in 200 μL of distilled water and applied to filter paper, in a 60×15 mm plastic Petri dish, (640.8 μg/mm^3). Control filter paper received 200 μL of distilled water. With 75 worker termites per dish, collection group A were used. Pseudotrichonyrnpha grassii Koidzumi, Holornastigotoides hartmanni Koidzumi and Spirotrichonympha leidyi Koidzumi were counted daily for 2 week as described in Mannesmann, R., Z. Angew. Entomol. 72: 116-128 (1972); and modified by Maiastrello, L., et al., Pest Manag. Sci. 59: 58-68 (2002). Hindguts were removed from the posterior ends of three workers and gently macerated in 40 μL saline solution containing neutral red dye (0.5 mL of 1% aqueous neutral red solution dissolved in 10 mL saline solution). The number of each protozoan species was determined using a hemocytometer (Bright-line Improved Neubauer, Hausser Scientific, Horsham, Pa.) under a light microscope. The population of each protozoan species per hindgut (XF) was calculated as: XF=(G×n)/(V×3), where G=volume (μL) of solution hindguts dissected in; n=mean of two counts within hemocytometer; V=volume (μL) of area counted. Mean (±SE) XF values calculated from two replicates were used for graphical comparison of data. […]

For series [2], the system named is Holornastigotoides hartmanni Koidzumi. Briefly: Protozoan counting, H. hartmanni. Conditions: 640.8 μg/mm^3, 14 day assay. The class given is in vivo. Here is the method: as §1
The subject of series [3] is Pseudotrichonyrnpha grassii Koidzumi. The experiment in a line: Protozoan counting, P. grassii. The class given is in vivo. Conditions: 640.8 μg/mm^3, 14 day assay. Here is the method:
as §1

Series [4] has as its system worker C. formosanus termites. The experiment in a line: Dose-response feeding assay (termite mortality on treated filter paper). Conditions: for mortality versus control group: 14 day assay. The text has this:
Worker C. formosanus were collected from Brechtel Park, New Orleans, La. by methods known in the art. Bait crates (open-mesh plastic containers) filled with southern yellow pine or spruce-pine-fir sapwood were arranged into a lattice and buried near a C. formosanus infested tree and collected after 3 to 9 weeks. Termite-containing crates were held in 250-liter plastic garbage cans kept at room temperature (26-28 C) and 70-80% relative humidity with the original food source. Termites were collected from New Orleans on 13 Jun. 2006 (collection group A); 9 Aug. 2006 (collection group B); 1 Mar. 2008 (collection group C); 9 May 2008 (collection group D); 20 May 2008 (collection group E); 20 Mar. 2009 (collection group F); 29 May 2009 (collection group G) and 11 May 2010 (collection group H); 18 Aug. 2012 (collection group I); May 2014 (collection group J); August 2014 (collection group K). The termite collection procedure was tapping infested wood sticks into clean plastic containers where termites were collected on moistened paper towels.
2-phospho-myo-inositol (dicyclohexylamine salt), glycerol-3-phosphate (dicyclohexylamine salt), dicyclohexylamine phosphate, monocyclohexylamine phosphate, and neat cyclohexylamine were screened for termiticide activity as follows: test compounds were applied to 42.5 mm×3 μm filter papers, in 60×15 mm plastic Petri dishes, in a solution of 1 mg of test compound per 10 μL of distilled water. Doses of 2.5 mg (160.2 μg/mm^3 of filter paper), 5 mg (320.4 μg/mm^3) 10 mg (640.8 μg/mm^3), and 20 mg (1281.7 μg/mm^3) of 2-phospho-myo-inositol were examined. Following filter paper treatment distilled water was added to bring the total volume applied to the filter papers to 300 μL, using 300 μL of distilled water as control. Cyclohexylamine was applied to the paper diluted in amounts of 300 μL, in concentrations ranging from 0.626 to 10.2 μg/mm^3. To prevent desiccation, approximately 50 μL of distilled water was applied to filter paper throughout the trials every third day, or upon observing that a filter paper disc was relatively dry. To test whether termite mortality was induced by consumption of the cyclohexylamine-treated paper, or whether vapor presence of cyclohexylamine was responsible for the toxicity, we compared addition of cyclohexylamine to both paper and fiberglass filters—the latter of which they will not consume. In addition to pure cyclohexylamine, dicyclohexylamine phosphate and monocyclohexylamine phosphate were tested for toxicity. Dicyclohexylamine phosphate was tested in concentrations ranging from 0.348 to 348 μg/mm^3, and monocyclohexylamine phosphate was tested in concentrations ranging from 2.28 to 228 μg/mm^3. Replicates of twenty worker termites were incubated in the dark in a parafilm-sealed Petri dish at room temperature for 2 weeks. Termite mortality was recorded daily in triplicate experiments. An analysis of variance (ANOVA) (SAS ANOVA procedure) followed by Tukey's Studentized range test was used to evaluate statistical differences among groups (Institute 1989). All mortality data were judged at a=0.05.
Termites from collection group B were used in the 2-Phospho-Myo-Inositol dose mortality assay. Termites from collection groups C and D were used in both the dicyclohexylamine-2-phophoinositol, and dicylclohexyalmine-glycerol-3-phosphate dose mortality assay. Termites from collection group I were used in cyclohexylamine dose mortality assays. Termites from collection […] in the dicyclohexylamine phosphate and neat cyclohexylamine volatility dose mortality assays. Termites from collection group K were used in the monocyclohexylamine phosphate dose mortality assay.

Series [5] has as its system C. formosanus hindgut protozoan populations. The experiment in a line: Protozoan counting, total hindgut protozoa. The settings on record: 640.8 μg/mm^3, 14 day assay. The class given is in vivo, Coptotermes formosanus. Here is the method:
as §1

Series [6] relates to worker termites (C. formosanus) antennae. The experiment in a line: Termite antenna ablative shortening (antenna length quantification). The class given is in vivo, Coptotermes formosanus. Conditions: 640.8 μg/mm^3, 14 day assay. The method, then: Fifty worker termites, from collection group B, were placed in a 60×15 mm polystyrene petri dish with 42.5 mm filter paper treated with 10 mg of 2-phospho-myo-inositol (640.8 μg/mm^3). Daily for 14 day three randomly selected termites were removed, euthanized with 5 μL of ethanol and their antennae were photographed, after which, GSA image analyzer was used to quantify the length of the termite antennae (Bansemer and Scheel 2010). Antenna length data were subjected to ANOVA followed by Tukey's Studentized range test (Institute 1989). All data were judged at α=0.05. All experiments were performed in triplicate.

The structures appear in SMILES notation. Structures can show the parent of a compound that is named as a salt.

For the compound `O=P(O)(O)OC1[C@@H](O)[C@H](O)C(O)[C@H](O)[C@H]1O` (some centres unmarked) [2-Phospho-Myo-Inositol, 2-phospho-myo-inositol (di-cyclohexylamine salt)], in series [1], the “S. leidyi populations versus control” value is “significantly lower than controls on day nine and 11”. For the same compound, the “H. hartmanni populations versus control” value in series [2] was “significantly reduced on day one, two, five, eight, nine, 10, 11 and 14”. Besides, the “P. grassii populations versus control” value in series [3] was “significantly lowered on day one, five, eight, nine, 10 and 11”. Besides, the “mortality versus control group” value in series [4] (160.2 μg/mm^3 filter paper), in series [4] (320.4 μg/mm^3 filter paper) and in series [4] (640.8 μg/mm^3 filter paper) was “did not result in mortality significantly different from the control group” throughout. Also, the “day on which mortality became significant” value in series [4] (1281.7 μg/mm^3) is listed as “eight”. Moreover, the mortality (in general, the share of the test organisms that died) in series [4] (1281.7 μg/mm^3, day 14) is recorded as 98%; in series [4] (1281.7 μg/mm^3, day eight) it was “Forty three”. Besides, the “total protozoan populations versus control” value in series [5] was “reduced total protozoan populations day four and thereafter”. Further, the “termite antennae length versus control” value in series [6] was “significantly reduced termite antennae of day five and six and eight through 14”.

For the origin of these results see patent US10575520B2, “Cyclohexylamine-based compounds and uses thereof” (BOARD OF SUPERVISORS OF LOUISIANA STATE UNIVERSITY AND …, priority 2016, dated 2020).
